Source: US8124964B2, “Field-effect transistor” (Nippon Kayaku Kabushiki Kaisha, priority 2006, dated 2012)

Assays:
[1] = Solubility Test 1: solubility to toluene; type: physicochemical; details: for Solubility (% by mass): to toluene, room temperature, visually checked
Protocol: (§1) To confirm solubility to solvent, which is one of the important characteristics of a semiconductor manufactured by coating, the solubility of a test compound to toluene was measured. A test compound was added to toluene little by little at room temperature and stirred. The solubility was determined by visually checking whether it was dissolved or not. When the test compound remained undissolved, the total amount by mass of the test compound added immediately before the moment was calculated and the solubility to toluene was expressed in terms of % by mass.
The “Compound No.” of Table 2 is the same as defined in Table 1. Furthermore, in Comparative Example 1, the solubility of Compound 16 of Example 15 disclosed in Patent Document 3 to toluene was calculated by the same test method as above. The structural formula of the compound used in Comparative Example 1 is shown in the formula (101) below.

[2] = Solubility Test 2: solubility to chloroform; type: physicochemical; details: room temperature, visually checked
Protocol: as §1, with “solvent,” for “solvent, which is one of the important characteristics of a semiconductor manufactured by coating,”, “chloroform” for “toluene”
After a chloroform suspension solution of the compound represented by the formula (101) above was prepared, insoluble solid substances were filtered off to obtain a filtrate. The solubility of the compound represented by the formula (101) above to the filtrate was 0.02% by mass.

Row | Compound | Solubility (% by mass) [1] | Solubility (% by mass) ([1]; listed as formula (101)) | Solubility (% by mass) [2] | solubility to toluene relative to the aryl derivative of Comparative Example 1 [1]
1 | c1ccc(-c2ccc3c(c2)sc2c4ccc(-c5ccccc5)cc4sc32)cc1 [Comparative Example 1, reference compound] | 0.01 or less % by mass | not more than 0.01 % by mass | 0.02 % by mass | –
2 | CCCCCCCCc1ccc2c(c1)sc1c3ccc(CCCCCCCC)cc3sc21 [Compound No. 16, 2,7-Dioctyl[1]benzothieno[3,2-b][1]benzothiophene] | 1.5 % by mass | – | 5.4 % by mass | at least 50 fold
3 | CCCCCCCCCCCCc1ccc2c(c1)sc1c3ccc(CCCCCCCCCCCC)cc3sc21 [Compound No. 20, 2,7-Didodecyl[1]benzothieno[3,2-b][1]benzothiophene] | 0.2 % by mass | – | 0.6 % by mass | ≥ 20 fold
